Test results taken from patent publication US11723907B2, “Anti-aging compounds” (THE CLEVELAND CLINIC FOUNDATION, priority 2017, dated 2023).

Tests used:
[1] = test system: cytochrome c; test: Enzymatic NAD(P)H oxidation / cytochrome c reduction catalyzed by N2N1; assay type: biochemical
Procedure: FIGS. 5A-5C provide graphs and schemes relating to the N2N1 mechanism of action. […] No specific substrate was added into reaction mix, therefore, it was concluded that reaction was driven by slow reduction of molecular oxygen dissolved into reaction buffer. The hypothetical reaction equation is shown below reaction plots. (B) The proposed molecular mechanism of possible substrate reduction catalyzed by N2N1. (C) Addition of peroxide or cytochrome c into reaction allowed us to identify cytochrome c as the most preferable substrate for the N2N1 driven enzymatic reaction. […] It was interesting to notice that addition of cytochrome c to non-enzymatic reaction reduced the reaction rate. […] The hypothetical reaction equation is show below the reaction plots.
FIGS. 6A-6B provide graphs showing the enzymatic reduction of cytochrome C catalyzed by N2N1 can utilize both NADH and NADPH. (A) The enzymatic electrons transfer from NADH to cytochrome c driven by N2N1 was monitored by decrease in absorption at 340 nm (NADH) and increase in absorption at 550 nm (cytochrome c). The absorbance spectrum was screened at the end of the reaction (˜1 hour). The hypothetical reaction equation is shown below the reaction plots. (B) The enzymatic electrons transfer from NADPH to cytochrome c driven by N2N1 was monitored by decrease in absorption at 340 nm (NADPH) and increase in absorption at 550 nm (cytochrome c). The hypothetical reaction equation is shown below the reaction plots.
To evaluate possible participation of mitochondrial NADH oxidoreductases, in particular Complex I and III, the […] was run in the presence of rotenone or antimycin A (2 μM). The acquired data allowed us to specify the most probable candidate that carry out the transfer electrons from NAD(P)H to cytochrome C driven by N2N1. The NQO1 protein would be the most likely candidate, while proteins from CYB5 family still cannot be ruled out.
Bonkowski et al., Nature reviews. Molecular cell biology 17, 679-690 (2016); Orr et al., Antioxidants & redox signaling 19, 788-803 (2013). It quite possible, that NAD(P)H oxidation catalyzed by N2N1 is performed by NADH:cytochrome b5 reductases (CYB5 . . . ) or NAD(P)H:quinone oxidoreductase (NQO1) reductase (FIG. 3C). The inventors found by RNA-seq analysis that fourteen genes from CYB5 family were expressed in normal fibroblast. NQO1 was also detected at the high level of expression. These reductases connect aerobic metabolism with aging by directed electron flow from NAD(P)H to oxygen, cytochrome C, and peroxide. Jimenez-Hidalgo et al., Aging cell 8, 140-151 (2009). […]

[2] = test system: HSC; test: Competitive repopulation assay, CD45.1/2 mouse model; assay type: in vivo; conditions: CD45.2 mice, one month in drinking water, ~2.0 mg/kg
Excerpt: FIGS. 2A-2G provide graphs and images showing N2N1 and VA support HSC/progenitors populations under pressure of differentiation and tissue culture stress in vitro and in vivo. General schema of CFU (A) and LTC-IC assays (B). […] Representative result of three NBM is shown. (D) The morphology of cells at the end of 1st part of LTC-IC assay is shown. The total number of cells at this step of experiment was always larger in the samples treated with experimental drugs. (E) Treatment of mice with N2N1 promotes maintenance of normal HSC in vivo. Competitive repopulation assay performed on CD45.2 mice treated with N2N1. Summary of four animals, three hematopoietic tissues. […] Representative result of three patients is shown.
The potential positive impact of identified pro-survival catalysts on viability and propagation of HSC was evaluated in competitive repopulation assay based on CD45.1/2 mouse model, a “gold standard” for HSC performance.

[3] = Non-enzymatic electron transfer from NAD(P)H to oxidized glutathione; assay type: biochemical; conditions: potassium phosphate buffer pH 7.0, 37° C.
Procedure: FIGS. 4A 4B provide graphs and schemes showing VA's mechanism of action. […] (A) Different concentrations of VA were incubated with GssG in potassium phosphate buffer at pH 7.0, 37° C. […] The effective concentrations of VA were similar to the detected for the extension of RLS in normal or progeroid cells. (B) The proposed molecular mechanism of glutathione reduction catalyzed by VA. The slightly acidic buffers (pH 7.0) supplemented with potassium (100 mM) were the preferable reaction conditions.
Lead compounds were tested on their possible catalytic amelioration of enzyme kinetics with all above mentioned proteins: recombinant and presented in cellular lysates.

Row | SMILES | catalysis of enzymatic NADH and NADPH conversion ([1]; 1 μM) | time to complete reduction of cytochrome c ([1]; 0.5 mM cytochrome c, NADH or NADPH) [min] | HSC number / repopulation capacity [2] | rate of NAD(P)H oxidation by GssG [3]
1 | O=C1/C(=N/O)C=Cc2ccccc21 [N2N1, 1-naphthoquinone-2-monoxime] | actively catalyze | 10 to 15 | increased number of HSC or/and increased repopulation capacity | –
2 | O=C1NC(=O)C(=NO)C(=O)N1 [VA, 2,4,5,6(1H,3H)-pyrimidine-tetrone 5-oxime] | – | – | – | substantially increase the reaction rate
